Test results from article PMC4893617 (Scientific Reports, 2016).
Structures can show the parent of a compound that is named as a salt.

Key:
[1] = target: T1, ChuaMOX (mandelonitrile oxidase) (Chamberlinius hualienensis, UniProt A0A173MZJ8); type: biochemical
T1 construct: native enzyme purified from millipede bodies without guts; ORF 593 residues incl; 17-residue signal peptide; predicted mature 62,818 Da; 67 kDa SDS-PAGE, 65 kDa gel filtration; monomeric, glycosylated, FAD

[2] = target: T1, ChuaMOX (mandelonitrile oxidase); test: biochemical; set-up: Oxidase activity of purified native ChuaMOX, ABTS read-out, pH 5, compound added at 1 mM; details: for remaining activity at 1000 µM: read-out: % of control remaining
Procedure: Enzymatic activity decreased in conditions approaching neutral pH, and it was lowest at a pH of 7 (Fig. 1c). After one hour of incubation at 25 °C, 80% of the ChuaMOX activity remained over a range of pH values between 3 and 10 (Fig. 1d). […] After one hour of incubation at pH 8, 80% of the activity remained between 25 °C and 50 °C, and all activity was lost at 70 °C (Fig. 1f). […] (Table 1). The enzyme required [compound left out] as a substrate rather than [compound left out] (see Supplementary Table S3). […] The chemicals (see Supplementary Table S5) were purchased from various suppliers (Sigma-Aldrich, Dojindo, Alfa Aesar, and Tokyo Chemical Industries) or synthesized as described below and used as test substrates, inhibitors, and metal salts. Nitriles were prepared from their corresponding aldehydes by way of bisulfite adducts according to Young et al.[23].

[3] = target: T1, ChuaMOX (mandelonitrile oxidase); type: binding

T1 sequence (A0A173MZJ8 entry or part of it): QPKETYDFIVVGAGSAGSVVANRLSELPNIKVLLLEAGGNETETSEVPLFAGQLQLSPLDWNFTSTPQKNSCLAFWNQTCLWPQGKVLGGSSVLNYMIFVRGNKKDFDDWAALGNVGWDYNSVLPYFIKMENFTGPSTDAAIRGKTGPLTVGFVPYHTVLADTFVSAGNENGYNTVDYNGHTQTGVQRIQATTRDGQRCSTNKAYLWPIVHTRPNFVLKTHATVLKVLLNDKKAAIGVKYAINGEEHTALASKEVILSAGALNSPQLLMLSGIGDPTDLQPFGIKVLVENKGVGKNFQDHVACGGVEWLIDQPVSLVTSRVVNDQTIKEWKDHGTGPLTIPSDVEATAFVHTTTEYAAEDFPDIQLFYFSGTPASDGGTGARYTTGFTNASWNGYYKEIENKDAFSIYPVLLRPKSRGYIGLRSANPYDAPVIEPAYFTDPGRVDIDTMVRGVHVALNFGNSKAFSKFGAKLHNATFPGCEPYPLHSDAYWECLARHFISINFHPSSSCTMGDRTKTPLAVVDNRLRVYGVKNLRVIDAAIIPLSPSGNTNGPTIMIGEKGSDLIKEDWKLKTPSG

Compound	remaining activity at 1000 µM [2] [%]	further results
N#CC(O)c1ccccc1 (racemic) [racemic mandelonitrile]		Km [1]: 2100 µM
c1cnc2c(c1)ccc1cccnc12 [1,10-Phenanthroline]	84.1	
c1ccc(-c2ccccn2)nc1 [2,2'-Bipyridyl]	87.3	
Oc1cccc2cccnc12 [8-Hydroxyquinoline]		% of control remaining ([2]; pH 5, standard assay, 1000 µM, inhibitor): 56.0%
O=C(O)CI [Iodoacetic acid]	71.4	
CC(C)NNC(=O)c1ccncc1 [Iproniazid]	80	
NNC(=O)c1ccncc1 [Isoniazid]	88	
CCN1C(=O)C=CC1=O [N-Ethylmaleimide]	96.8	
C#CCN(C)Cc1ccccc1 [Pargyline]	100	
NNC(N)=O [Semicarbazide hydrochloride]	92	
Cc1cc2nc3c(=O)[nH]c(=O)nc-3n(C[C@H](O)[C@H](O)[C@H](O)COP(=O)(O)OP(=O)(O)OC[C@H]3O[C@@H](n4cnc5c(N)ncnc54)[C@H](O)[C@@H]3O)c2cc1C [flavin adenine dinucleotide]		thin layer chromatography of the prosthetic group; UV-visible spectrum of purifi [3]: Thin layer chromatography (TLC) identified the prosthetic group as flavin adenine dinucleotide (FAD)
